Data on 33 compounds can be found in patent US10392391B2 (Vertex Pharmaceuticals Incorporated, priority 2012, dated 2019).

The test has as its target ATR kinase (full-length ATR) (Homo sapiens (Human), UniProt Q13535). As to the kind of experiment: ATR inhibition assay (radioactive-phosphate incorporation). The format is biochemical. The method in brief: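 Ki(app) was fitted by non-linear regression to background-corrected initial rates. Full-length ATR (5 nM) phosphorylated 800 μM peptide using 10 μM [γ-33P]ATP at 25° C in Tris/HCl pH 7.5 buffer with MgCl2, DTT and 7% DMSO. After 10-minute compound pre-incubation and 24-hour reaction, phosphocellulose filters were scintillation counted.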

Where [1] appears, read: Ki(app), 5 nM full-length ATR, 10 μM ATP, 25° C.

Like-named read-outs stand apart in the source and are kept apart here. A value given as a limit tells only on which side of the number the result lay.

Chain of ATR kinase (full-length ATR) (Q13535 whole entry): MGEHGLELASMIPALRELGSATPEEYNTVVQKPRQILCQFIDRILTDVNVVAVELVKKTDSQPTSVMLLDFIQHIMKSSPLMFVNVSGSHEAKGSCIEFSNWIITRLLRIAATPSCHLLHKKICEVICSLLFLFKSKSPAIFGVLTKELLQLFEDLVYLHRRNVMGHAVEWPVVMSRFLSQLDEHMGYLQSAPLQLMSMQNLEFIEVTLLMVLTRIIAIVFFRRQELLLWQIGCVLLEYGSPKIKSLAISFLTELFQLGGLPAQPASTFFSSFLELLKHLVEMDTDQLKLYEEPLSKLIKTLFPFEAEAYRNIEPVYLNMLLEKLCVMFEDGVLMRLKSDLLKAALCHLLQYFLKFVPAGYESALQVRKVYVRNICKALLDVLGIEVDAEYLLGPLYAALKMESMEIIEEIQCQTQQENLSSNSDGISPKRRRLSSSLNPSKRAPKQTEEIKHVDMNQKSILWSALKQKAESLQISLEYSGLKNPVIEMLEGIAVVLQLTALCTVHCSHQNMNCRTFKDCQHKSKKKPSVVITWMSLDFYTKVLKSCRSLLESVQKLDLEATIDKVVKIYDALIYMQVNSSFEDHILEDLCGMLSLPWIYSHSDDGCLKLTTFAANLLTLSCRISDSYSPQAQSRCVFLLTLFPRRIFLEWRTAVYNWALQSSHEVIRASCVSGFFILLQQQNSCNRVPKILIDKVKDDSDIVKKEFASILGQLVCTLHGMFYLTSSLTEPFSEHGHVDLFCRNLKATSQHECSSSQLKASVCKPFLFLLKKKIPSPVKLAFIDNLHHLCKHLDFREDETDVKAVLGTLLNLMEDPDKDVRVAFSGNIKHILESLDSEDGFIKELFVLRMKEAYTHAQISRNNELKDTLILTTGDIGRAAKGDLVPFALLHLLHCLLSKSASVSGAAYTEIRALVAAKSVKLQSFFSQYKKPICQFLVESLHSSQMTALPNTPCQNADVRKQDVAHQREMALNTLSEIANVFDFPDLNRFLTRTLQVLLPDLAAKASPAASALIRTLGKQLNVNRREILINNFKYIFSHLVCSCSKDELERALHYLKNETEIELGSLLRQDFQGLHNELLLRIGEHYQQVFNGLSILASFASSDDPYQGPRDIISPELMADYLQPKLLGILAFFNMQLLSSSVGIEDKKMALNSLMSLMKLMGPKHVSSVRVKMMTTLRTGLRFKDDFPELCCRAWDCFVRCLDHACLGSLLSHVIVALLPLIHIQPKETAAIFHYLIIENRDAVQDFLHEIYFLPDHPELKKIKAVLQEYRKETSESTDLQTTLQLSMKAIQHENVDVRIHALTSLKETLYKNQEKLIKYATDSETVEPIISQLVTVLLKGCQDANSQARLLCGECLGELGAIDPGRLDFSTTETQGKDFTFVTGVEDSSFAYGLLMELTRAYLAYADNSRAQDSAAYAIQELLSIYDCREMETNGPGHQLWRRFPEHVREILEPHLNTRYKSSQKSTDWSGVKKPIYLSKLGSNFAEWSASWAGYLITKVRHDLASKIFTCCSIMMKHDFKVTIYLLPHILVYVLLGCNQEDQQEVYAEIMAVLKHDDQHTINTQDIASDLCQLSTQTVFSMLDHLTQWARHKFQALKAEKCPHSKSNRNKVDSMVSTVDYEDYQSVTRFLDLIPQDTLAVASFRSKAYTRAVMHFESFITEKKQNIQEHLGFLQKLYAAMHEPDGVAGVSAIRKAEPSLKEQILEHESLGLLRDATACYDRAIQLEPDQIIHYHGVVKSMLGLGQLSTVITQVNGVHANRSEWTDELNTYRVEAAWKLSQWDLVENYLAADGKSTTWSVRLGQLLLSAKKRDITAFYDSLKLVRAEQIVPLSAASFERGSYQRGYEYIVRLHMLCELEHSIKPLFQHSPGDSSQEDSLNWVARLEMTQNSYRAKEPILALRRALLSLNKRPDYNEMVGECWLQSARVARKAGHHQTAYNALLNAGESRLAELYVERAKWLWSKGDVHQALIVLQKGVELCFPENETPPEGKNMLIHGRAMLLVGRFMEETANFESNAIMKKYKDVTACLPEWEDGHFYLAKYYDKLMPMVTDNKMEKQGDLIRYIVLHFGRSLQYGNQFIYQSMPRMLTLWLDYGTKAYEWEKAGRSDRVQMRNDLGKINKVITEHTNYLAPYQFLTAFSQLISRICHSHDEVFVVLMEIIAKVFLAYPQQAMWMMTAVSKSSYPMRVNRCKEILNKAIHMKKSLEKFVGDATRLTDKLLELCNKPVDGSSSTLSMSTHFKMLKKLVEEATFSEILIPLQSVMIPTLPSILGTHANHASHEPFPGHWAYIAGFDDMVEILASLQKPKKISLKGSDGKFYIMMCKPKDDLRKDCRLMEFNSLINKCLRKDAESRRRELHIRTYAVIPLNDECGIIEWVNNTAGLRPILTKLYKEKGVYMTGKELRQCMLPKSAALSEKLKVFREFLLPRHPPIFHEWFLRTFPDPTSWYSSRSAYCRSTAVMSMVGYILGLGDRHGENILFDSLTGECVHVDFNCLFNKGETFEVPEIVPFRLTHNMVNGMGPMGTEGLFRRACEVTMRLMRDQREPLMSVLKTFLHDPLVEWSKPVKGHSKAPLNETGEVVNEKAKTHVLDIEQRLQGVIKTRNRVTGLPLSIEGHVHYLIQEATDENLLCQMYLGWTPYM

For the compound `Nc1nn2cc(F)cnc2c1C(=O)Nc1cncc(F)c1OC1CCN(C2COC2)CC1` [I-O-91, 2-amino-6-fluoro-N-(5-fluoro-4-((1-(oxetan-3-yl)piperidin-4-yl)oxy)pyridin-3-yl)pyrazolo[1,5-a]pyrimidine-3-carboxamide], the Ki under setting [1] lay in the range of 10 to 1000 nM.

Regarding `Nc1nn2cc(Cl)cnc2c1C(=O)Nc1cnccc1N1CCC(N2CCOCC2)CC1` [I-N-104, 2-amino-6-chloro-N-(4-(4-morpholinopiperidin-1-yl)pyridin-3-yl)pyrazolo[1,5-a]pyrimidine-3-carboxamide], the Ki under setting [1] is 10 to 1000 nM.

For `N#CCc1cnc2c(C(=O)Nc3cnccc3OCCN)c(N)nn2c1` [I-O-83, 2-amino-N-(4-(2-aminoethoxy)pyridin-3-yl)-6-(cyanomethyl)pyrazolo[1,5-a]pyrimidine-3-carboxamide], the Ki under setting [1] was less than 10 nM.

For the compound `CN1CCC(Oc2ccncc2NC(=O)c2c(N)nn3cc(F)cnc23)CC1` [I-O-12, 2-amino-6-fluoro-N-(4-((1-methylpiperidin-4-yl)oxy)pyridin-3-yl)pyrazolo[1,5-a]pyrimidine-3-carboxamide], the Ki under setting [1] lay within 10 to 1000 nM.

In the case of `Nc1nn2cc(Cl)cnc2c1C(=O)Nc1cnccc1OC1CCCNC1` (stereo not drawn) [I-O-75, 2-amino-6-chloro-N-(4-(piperidin-3-yloxy)pyridin-3-yl)pyrazolo[1,5-a]pyrimidine-3-carboxamide], under setting [1], the Ki lay in the range of 10 to 1000 nM.

Take `CC(=O)N1CCC2(CCN(c3ccncc3NC(=O)c3c(N)nn4cc(F)cnc34)CC2)C1` [I-N-257, N-(4-(2-acetyl-2,8-diazaspiro[4.5]decan-8-yl)pyridin-3-yl)-2-amino-6-fluoropyrazolo[1,5-a]pyrimidine-3-carboxamide]: the Ki under setting [1] lay in the range of 10 to 1000 nM.

For the compound `Nc1nn2cc(F)cnc2c1C(=O)Nc1cnccc1N1CCC(C(=O)N2CC(F)(F)C2)CC1` [I-G-80, 2-amino-N-(4-(4-(3,3-difluoroazetidine-1-carbonyl)piperidin-1-yl)pyridin-3-yl)-6-fluoropyrazolo[1,5-a]pyrimidine-3-carboxamide], the Ki under setting [1] lay within 10 to 1000 nM.

For the compound `CN1C2CCC1CN(C(=O)C1CCN(c3c(F)cncc3NC(=O)c3c(N)nn4cc(F)cnc34)CC1)C2` [I-G-52, 2-amino-6-fluoro-N-(5-fluoro-4-(4-(8-methyl-3,8-diazabicyclo[3.2.1]octane-3-carbonyl)piperidin-1-yl)pyridin-3-yl)pyrazolo[1,5-a]pyrimidine-3-carboxamide], the Ki under setting [1] was in the range of 10 to 1000 nM.

Take `NCC1CCN(c2ccncc2NC(=O)c2c(N)nn3cc(Cl)cnc23)CC1` [I-N-91, 2-amino-N-(4-(4-(aminomethyl)piperidin-1-yl)pyridin-3-yl)-6-chloropyrazolo[1,5-a]pyrimidine-3-carboxamide]: the Ki under setting [1] is less than 10 nM.

Regarding `CN1CCN(c2cc(Cl)ncc2NC(=O)c2c(N)nn3cc(Cl)cnc23)CC1` [I-N-52, 2-amino-6-chloro-N-(6-chloro-4-(4-methylpiperazin-1-yl)pyridin-3-yl)pyrazolo[1,5-a]pyrimidine-3-carboxamide], the Ki was 1000 to 5000 nM.

Turning to `Nc1nn2cc(F)cnc2c1C(=O)Nc1cncc(C2CC2)c1N1CCN(C2COC2)CC1` [I-N-32, 2-amino-N-(5-cyclopropyl-4-(4-(oxetan-3-yl)piperazin-1-yl)pyridin-3-yl)-6-fluoropyrazolo[1,5-a]pyrimidine-3-carboxamide], the Ki under setting [1] is 10 to 1000 nM.

Turning to `Nc1nn2cc(Cl)cnc2c1C(=O)Nc1cnccc1N1CCN(C2CCC2)CC1` [I-N-48, 2-amino-6-chloro-N-(4-(4-cyclobutylpiperazin-1-yl)pyridin-3-yl)pyrazolo[1,5-a]pyrimidine-3-carboxamide], the Ki under setting [1] lay within 10 to 1000 nM.

Regarding `Nc1nn2cc(F)cnc2c1C(=O)Nc1cncc(F)c1N1CCN(CC(=O)N2CCC2)CC1` [I-N-228, 2-amino-N-(4-(4-(2-(azetidin-1-yl)-2-oxoethyl)piperazin-1-yl)-5-fluoropyridin-3-yl)-6-fluoropyrazolo[1,5-a]pyrimidine-3-carboxamide], under setting [1], the Ki is 10 to 1000 nM.

Regarding `CN1CCOC[C@@H]1c1ccc(-c2ccncc2NC(=O)c2c(N)nn3cc(F)cnc23)cc1` [I-C-66, (S)-2-amino-6-fluoro-N-(4-(4-(4-methylmorpholin-3-yl)phenyl)pyridin-3-yl)pyrazolo[1,5-a]pyrimidine-3-carboxamide], the Ki under setting [1] fell in the range of 10 to 1000 nM.

In the case of `Nc1nn2cc(F)cnc2c1C(=O)Nc1cncc(F)c1N1CCN(C(=O)C2CC2)CC1` [I-N-276, 2-amino-N-(4-(4-(cyclopropanecarbonyl)piperazin-1-yl)-5-fluoropyridin-3-yl)-6-fluoropyrazolo[1,5-a]pyrimidine-3-carboxamide], the Ki under setting [1] was 10 to 1000 nM.

In the case of `Nc1nn2cc(F)cnc2c1C(=O)Nc1cncc(F)c1N1CCN2CCOC[C@H]2C1` [I-N-135, (R)-2-amino-6-fluoro-N-(5-fluoro-4-(hexahydropyrazino[2,1-c][1,4]oxazin-8(1H)-yl)pyridin-3-yl)pyrazolo[1,5-a]pyrimidine-3-carboxamide], the Ki under setting [1] fell in the range of 10 to 1000 nM.

On to `COCCS(=O)(=O)C1CCN(c2ccncc2NC(=O)c2c(N)nn3cc(F)cnc23)CC1` [I-N-208, 2-amino-6-fluoro-N-(4-(4-((2-methoxyethyl)sulfonyl)piperidin-1-yl)pyridin-3-yl)pyrazolo[1,5-a]pyrimidine-3-carboxamide], for which the Ki under setting [1] is 10 to 1000 nM.

Regarding `Nc1nn2cc(Cl)cnc2c1C(=O)Nc1cnccc1OC1CCCOC1` (stereo not drawn) [I-O-65, 2-amino-6-chloro-N-(4-((tetrahydro-2H-pyran-3-yl)oxy)pyridin-3-yl)pyrazolo[1,5-a]pyrimidine-3-carboxamide], under setting [1], the Ki fell in the range of 10 to 1000 nM.

Regarding `CS(=O)(=O)C1CCN(c2c(F)cncc2NC(=O)c2c(N)nn3cc(F)cnc23)CC1` [I-N-165, 2-amino-6-fluoro-N-(5-fluoro-4-(4-(methylsulfonyl)piperidin-1-yl)pyridin-3-yl)pyrazolo[1,5-a]pyrimidine-3-carboxamide], the Ki under setting [1] lay in the range of 10 to 1000 nM.

For `N#CCc1cnc2c(C(=O)Nc3cnccc3N3CCCCC3)c(N)nn2c1` [I-N-84, 2-amino-6-(cyanomethyl)-N-(4-(piperidin-1-yl)pyridin-3-yl)pyrazolo[1,5-a]pyrimidine-3-carboxamide], under setting [1], the Ki was less than 10 nM.

With `N#CCc1cnc2c(C(=O)Nc3cnccc3OC3CN4CCC3CC4)c(N)nn2c1` (racemic) [I-O-22, (R,S)-2-amino-6-(cyanomethyl)-N-(4-(quinuclidin-3-yloxy)pyridin-3-yl)pyrazolo[1,5-a]pyrimidine-3-carboxamide], the Ki under setting [1] lay within 10 to 1000 nM.

In the case of `Cc1nc(O[C@@H]2CCN(C)C2)ccc1-c1ccncc1NC(=O)c1c(N)nn2cc(F)cnc12` [I-C-41, (R)-2-amino-6-fluoro-N-(2-methyl-6-((1-methylpyrrolidin-3-yl)oxy)-[3,4′-bipyridin]-3′-yl)pyrazolo[1,5-a]pyrimidine-3-carboxamide], the Ki under setting [1] lay in the range of 10 to 1000 nM.

In the case of `Nc1nn2cc(F)cnc2c1C(=O)Nc1cncc(F)c1N1CCC(C(=O)N2CCC(N3CCCCC3)C2)CC1` (stereo not drawn) [I-G-64, 2-amino-6-fluoro-N-(5-fluoro-4-(4-(3-(piperidin-1-yl)pyrrolidine-1-carbonyl)piperidin-1-yl)pyridin-3-yl)pyrazolo[1,5-a]pyrimidine-3-carboxamide], the Ki under setting [1] was in the range of 10 to 1000 nM.

As to `Cc1cnccc1-c1ccncc1NC(=O)c1c(N)nn2cc(F)cnc12` [I-C-29, 2-amino-6-fluoro-N-(3′-methyl-[4,4′-bipyridin]-3-yl)pyrazolo[1,5-a]pyrimidine-3-carboxamide], under setting [1], the Ki fell in the range of 10 to 1000 nM.

As for `CN1CCN(c2c(C#N)cncc2NC(=O)c2c(N)nn3cc(F)cnc23)CC1` [I-N-113, 2-amino-N-(5-cyano-4-(4-methylpiperazin-1-yl)pyridin-3-yl)-6-fluoropyrazolo[1,5-a]pyrimidine-3-carboxamide], the Ki was 1000 to 5000 nM.

With `CN1CC(C(=O)N2CCN(c3c(F)cncc3NC(=O)c3c(N)nn4cc(F)cnc34)CC2)C1` [I-N-194], the Ki under setting [1] was in the range of 10 to 1000 nM.

As to `Nc1nn2cc(F)cnc2c1C(=O)Nc1cncc(F)c1N1CCN(C(=O)CN2CCC2)CC1` [I-N-160, 2-amino-N-(4-(4-(2-(azetidin-1-yl)acetyl)piperazin-1-yl)-5-fluoropyridin-3-yl)-6-fluoropyrazolo[1,5-a]pyrimidine-3-carboxamide], the Ki under setting [1] lay in the range of 10 to 1000 nM.

On to `CC(C)(C)Oc1ccncc1NC(=O)c1c(N)nn2cc(F)cnc12` [I-O-88, 2-amino-N-(4-(tert-butoxy)pyridin-3-yl)-6-fluoropyrazolo[1,5-a]pyrimidine-3-carboxamide], for which, under setting [1], the Ki was 10 to 1000 nM.

As for `COc1ccncc1NC(=O)c1c(N)nn2cc(F)cnc12` [I-O-4, 2-amino-6-fluoro-N-(4-methoxypyridin-3-yl)pyrazolo[1,5-a]pyrimidine-3-carboxamide], the Ki under setting [1] lay within 10 to 1000 nM.

With `CNC1CN(C(=O)C2CCN(c3c(F)cncc3NC(=O)c3c(N)nn4cc(F)cnc34)CC2)C1` [I-G-34, 2-amino-6-fluoro-N-(5-fluoro-4-(4-(3-(methylamino)azetidine-1-carbonyl)piperidin-1-yl)pyridin-3-yl)pyrazolo[1,5-a]pyrimidine-3-carboxamide], the Ki under setting [1] was in the range of 10 to 1000 nM.

In the case of `CN(C)CCOc1ccncc1NC(=O)c1c(N)nn2cc(Cl)cnc12` [I-O-48, 2-amino-6-chloro-N-(4-(2-(dimethylamino)ethoxy)pyridin-3-yl)pyrazolo[1,5-a]pyrimidine-3-carboxamide], the Ki under setting [1] was 10 to 1000 nM.

For the compound `Nc1nn2cc(F)cnc2c1C(=O)Nc1cncc(Cl)c1N1CCC(C(=O)N2CCNCC2)CC1` [I-G-48, 2-amino-N-(5-chloro-4-(4-(piperazine-1-carbonyl)piperidin-1-yl)pyridin-3-yl)-6-fluoropyrazolo[1,5-a]pyrimidine-3-carboxamide], the Ki under setting [1] lay within 10 to 1000 nM.

For the compound `Nc1nn2cc(Cl)cnc2c1C(=O)Nc1cnccc1N1CCN2CCC[C@@H]2C1` [I-N-65, (R)-2-amino-6-chloro-N-(4-(hexahydropyrrolo[1,2-a]pyrazin-2(1H)-yl)pyridin-3-yl)pyrazolo[1,5-a]pyrimidine-3-carboxamide], the Ki under setting [1] was in the range of 10 to 1000 nM.
